Measurements reported in US10342806B2, “Hormone treatment for age-related hearing loss-presbycusis” (priority 2014, dated 2019).

Assays:
[1] = tested on: Spiral ganglion neuron (SGN); experiment: Spiral ganglion neuron cell density, H&E staining of cochlear sections; format: in vivo, mouse; conditions: upper apical, lower apical, upper basal, lower basal regions; ALD-treated middle-aged mice vs untreated control mice
Procedure: (§1) Death was confirmed by terminal phlebotomy/exsanguinations and perfusion.
For immunohistochemistry, mice were sacrificed, and one of the cochleae dissected, fixed in 4% paraformaldehyde in PBS overnight at 4° C., decalcification in 10% EDTA in PBS for a week at 4° C., and incubated in cryoprotection solution overnight at 4° C. The cochleae were embedded into degassed OCT overnight at 4° C., orientated into the cryomold with OCT degassed for 1 hour, then frozen at −80° C. Cryosectioning was performed at 5 μm per section. The cochlear cross sections were stained with hematoxylin and eosin (H&E) and MCR (H-300) (sc-11412, Santa Cruz Bio). The spiral ganglion neurons were counted by Metamorph imaging software (Molecular Devices, Center Valley, Pa. 18034-0610) and data analyzed by GraphPad Prism (GraphPad Software, Inc. La Jolla, Calif.).
Spiral ganglion neuron (SGN) cell density was measured from 4 different topographical area, comparing ALD-treated middle-aged mice to age-matched controls. […] Further, this increase in SGN is correlated with ABR threshold shifts (shown below) in the same mice.

iNOS and nNOS = iNOS and nNOS expression in modiolar tissue samples; format: in vivo, mouse; conditions: young adult, control middle-aged, ALD-treated middle-aged mice
Procedure: During treatment, blood pressures were measured for the mice at 2 and 4 months after start of treatment. […] Death was confirmed by terminal phlebotomy/exsanguinations and perfusion. Cell lysates were collected and subject to western blot and RT-PCT analysis. The cells were placed in RIPA buffer and sonicated. Protein concentration was measured using the Bradford method. Proteins were separated by SDS-PAGE. The antibodies used for western blot were: anti-iNOS, nNOS and caspase-3 antibodies (Cell Signaling, Cambridge, Mass.). Total cellular RNA was extracted using the RNeasy Plus Mini Kit (74134). For RT-PCR, 10 ng of total cellular RNA was reverse transcribed and complementary DNA was amplified, using the Enhanced Avian HS RT-PCR-100 Kit (Sigma, HSRT20). Primers used for qRT-PCR were as follows: […]

NKCC1 [2] = conditions: Jiang et al. 2003, cited from earlier work
[3] = tested on: mineralocorticoid receptors (MCR); experiment: MCR expression in spiral ganglion neurons (western blot, immunohistochemistry); format: in vivo, mouse; conditions: middle-aged mice, ALD treatment vs young adult and middle age controls
Procedure: as §1
After sacrifice, a cochlear modiolus (CM) was dissected from the temporal bone, & pooled together for measuring NKCC1 protein and mRNA expression. The other CM was prepared for immunohistochemistry as described below. Data was analyzed using one-way ANOVA, and two-way repeated measures ANOVA through GraphPad Prism 5.0 with protein level measurements (Δ Intensity=Background tissue intensity−experimental area intensity) (GraphPad Software, La Jolla, Calif.).
For Western blot and RT-PCR, cells were placed in RIPA buffer and sonicated. Protein concentration was measured using the Bradford method. Proteins were separated by SDS-PAGE. […]
For immunohistochemistry, mice were sacrificed, and one of the cochleae dissected, fixed in 4% paraformaldehyde in PBS overnight at 4° C., decalcification in 10% EDTA in PBS for a week at 4° C., and incubated in cryoprotection solution overnight at 4° C. […] The spiral ganglion neurons were counted by Metamorph imaging software (Molecular Devices, Center Valley, Pa. 18034-0610) and data analyzed by GraphPad Prism (GraphPad Software, Inc. La Jolla, Calif.).
Levels of staining for MCR presence in young adult and middle-aged mice was determined by densitometry analysis (MetaMorph Image Analysis System) of immunocytochemistry sections.

NKCC1 [4] = experiment: 86Rb uptake in HT-29 cells; format: cell-based, human; conditions: HT-29 cells, 2, 4, 8, and 12 h after ALD
Procedure: Cell culture and buffers. […] Arch Oral Biol 52: 411-416, 2007). […] J Cell Sci 112: […], 1999, Epple, et al., Early aldosterone effect in distal colon by transcriptional regulation of ENaC subunits. Am J Physiol Gastrointest Liver Physiol 278: […] Am J Physiol Cell Physiol 305: […]-[…], 2013). HT-29 cells were grown in DMEM media (Invitrogen, Carlsbad Calif.) with 10% FBS and antibiotics. Cells were grown in a humidified 95%/5% CO2 incubator at 37° C. Experiments were performed at 70-80% confluence. ^86Rb uptake. Similar to previous studies of NKCC1 activity (Gagnon & Delpire, Molecular determinants of hyperosmotically activated NKCC1-mediated K_/K_exchange. J Physiol 588: 3385-3396, 2010), cells were plated on six-well dishes and incubated at 37° C./5% CO2 until confluent. For the uptake, cells were first washed twice with 1 ml of isosmotic saline (140 mM NaCl, 5 mM KCl, 2 mM CaCl2, 0.8 mM MgSO4, 5 mM glucose, 5 mM HEPES buffered to pH 7.4, and 300.5 mosM). […] After a 20-min uptake, the radioactive solution was aspirated, and the cells were washed three times with 1 ml of ice-cold solution, lysed for 1 h with 500 μl of 0.25 N NaOH, and neutralized with 250 μl of glacial acetic acid. ^86Rb tracer activity was measured by using 150 μl of lysate for γ-scintillation counting. […]

caspase-3 = experiment: Caspase-3 expression in modiolar tissue samples; format: in vivo, mouse; conditions: ALD-treated middle-aged mice vs control middle-aged and young mice
Procedure: During treatment, blood pressures were measured for the mice at 2 and 4 months after start of treatment. […] Death was confirmed by terminal phlebotomy/exsanguinations and perfusion. Cell lysates were collected and subject to western blot and RT-PCT analysis. The cells were placed in RIPA buffer and sonicated. Protein concentration was measured using the Bradford method. Proteins were separated by SDS-PAGE. The antibodies used for western blot were: anti-iNOS, nNOS and caspase-3 antibodies (Cell Signaling, Cambridge, Mass.). Total cellular RNA was extracted using the RNeasy Plus Mini Kit (74134). For RT-PCR, 10 ng of total cellular RNA was reverse transcribed and complementary DNA was amplified, using the Enhanced Avian HS RT-PCR-100 Kit (Sigma, HSRT20).

## C[C@]12CCC(=O)C=C1CC[C@@H]1[C@@H]2[C@@H](O)C[C@]2(C=O)[C@@H](C(=O)CO)CC[C@@H]12 [ALD, aldosterone]
[1]
  SGN density: SGN density was higher
iNOS and nNOS
  iNOS and nNOS gene expression: no alteration in NOS expression
  iNOS protein levels: approximately the same
NKCC1 [2]
  NKCC1 transcripts, real-time polymerase chain reaction: did not elevate NKCC1 transcripts
NKCC1 [2]; adrenalectomized rats, multiday treatment
  increase in NKCC1 activity: 63%
[3]
  MCR expression levels, densitometry of immunocytochemistry sections: partially rescued the expression levels seen in the young adult
NKCC1 [4]
  NKCC1 protein activity (86Rb uptake): upregulated NKCC1 protein activity
caspase-3
  caspase-3 levels in modiolar tissue: reduced caspase-3 to levels below even the young mice samples
